In this assay the target is T1, purified recombinant human p38 alpha MAPK (Homo sapiens, UniProt Q16539).
T1 construct: purchased Millipore, USA
Nature of the assay: Inhibition of p38 alpha MAPK activity, TR-FRET kinase assay. The format is biochemical. Particulars: for inhibition at 1 µM / inhibition at 0.1 µM: read-out: P38α Inhibition; for inhibition at 0.1 µM: Concentration 100 nM. The protocol: Inhibition of p38 Alpha MAPK Activity: Time-Resolved Fluorescence Resonance Energy Transfer Kinase Standard Assay (TR-FRET Assay)
Compounds of present invention at various concentrations were premixed with DMSO. The experiment was initiated by mixing 0.5%-1.0% DMSO as vehicle/compounds with purified recombinant human p38 alpha MAPK (Millipore, USA) in the wells and 15 min incubation at room temperature. Thereafter, 30 nM of Biotinylated GST-ATF2 (Activation transcription Factor2) and 100 μM of ATP were added in to the wells containing reaction mixture, followed by reincubation for 60 minutes at RT. Reaction was terminated by addition of 10 mM of EDTA and detection reagent containing anti-phosphotheronine ATF2 antibody (PerkinElmer®, USA) labeled with europium chelate and APC (Allophycocyanin) labeled streptavidin, into the reaction mixture which was further incubated for 60 minutes at room temperature. The degree of phosphorylation of the substrate (GST-ATF2) was measured using Envision multimode reader (PerkinElmer®). Percentage inhibition of p38 kinase activity was calculated by determining ratio of specific europium 665 nm energy transfer signal to reference 615 nm signal.
For orientation: TR-FRET usually uses a lanthanide donor and a delayed reading to cut background.

T1 sequence (Q16539 whole entry): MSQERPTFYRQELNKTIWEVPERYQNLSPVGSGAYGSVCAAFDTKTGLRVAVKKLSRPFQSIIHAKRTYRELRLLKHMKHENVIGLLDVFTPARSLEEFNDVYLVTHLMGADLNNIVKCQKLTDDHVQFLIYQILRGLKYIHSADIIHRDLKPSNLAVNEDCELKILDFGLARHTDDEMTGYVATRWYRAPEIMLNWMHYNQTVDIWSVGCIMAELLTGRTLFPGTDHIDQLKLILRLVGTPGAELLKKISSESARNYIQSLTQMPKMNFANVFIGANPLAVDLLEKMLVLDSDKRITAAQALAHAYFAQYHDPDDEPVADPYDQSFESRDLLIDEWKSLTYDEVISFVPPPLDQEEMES

For orientation: inhibition means the change of the read-out against control, counted positive when it falls. For `CCCCOc1ccccc1-c1nnc2n1CCN(CCOc1ccc(NC(=O)Nc3cc(C(C)(C)C)nn3-c3ccc(C)cc3)c3c1CCC3)C2` [Compound 32, 1-(7-{2-[3-(2-butoxyphenyl)-5,6-dihydro[1,2,4]triazolo[4,3-a]pyrazin-7(8H)-yl]ethoxy}-2,3-dihydro-1H-inden-4-yl)-3-[3-tert-butyl-1-(4-methylphenyl)-1H-pyrazol-5-yl]urea], the inhibition at 1 µM (Concentration 1 μM) was 80 to 100%.
Consider `CCCSc1ccccc1-c1nnc2n1CCN(CCOc1ccc(NC(=O)Nc3cc(C(C)(C)C)nn3-c3ccc(C)cc3)c3c1CCC3)C2` [Compound 33, 1-[3-tert-butyl-1-(4-methylphenyl)-1H-pyrazol-5-yl]-3-[7-(2-{3-[2-(propylsulfanyl)phenyl]-5,6-dihydro[1,2,4]triazolo[4,3-a]pyrazin-7(8H)-yl}ethoxy)-2,3-dihydro-1H-inden-4-yl]urea], for which the inhibition at 1 µM (Concentration 1 μM) fell in the range of 80 to 100%.
Take `Cc1ccc(-n2nc(C(C)(C)C)cc2NC(=O)Nc2ccc(OCCN3CCn4c(nnc4-c4ccc(O)cc4)C3)c3c2CCC3)cc1` [Compound 34, 1-[3-tert-butyl-1-(4-methylphenyl)-1H-pyrazol-5-yl]-3-(7-{2-[3-(4-hydroxyphenyl)-5,6-dihydro[1,2,4]triazolo[4,3-a]pyrazin-7(8H)-yl]ethoxy}-2,3-dihydro-1H-inden-4-yl)urea]: where the note is “Concentration 1 μM”, the inhibition at 1 µM lay within 80 to 100%.
Consider `CCCSc1ccccc1-c1nnc2n1CCN(CCOc1ccc(NC(=O)Nc3cc(C(C)(C)C)nn3-c3ccc(O)c(Cl)c3)c3c1CCC3)C2` [Compound 35, 1-[3-tert-butyl-1-(3-chloro-4-hydroxyphenyl)-1H-pyrazol-5-yl]-3-[7-(2-{3-[2-(propylsulfanyl)phenyl]-5,6-dihydro[1,2,4]triazolo[4,3-a]pyrazin-7(8H)-yl}ethoxy)-2,3-dihydro-1H-inden-4-yl]urea], for which the inhibition at 1 µM (Concentration 1 μM) lay within 80 to 100%.
On to `Cc1ccc(-n2nc(C(C)(C)C)cc2NC(=O)Nc2ccc(OCCN3CCn4c(nnc4-c4cccc(O)c4)C3)c3c2CCC3)cc1` [Compound 36, 1-[3-tert-butyl-1-(4-methylphenyl)-1H-pyrazol-5-yl]-3-(7-{2-[3-(3-hydroxyphenyl)-5,6-dihydro[1,2,4]triazolo[4,3-a]pyrazin-7(8H)-yl]ethoxy}-2,3-dihydro-1H-inden-4-yl)urea], for which, for the setting “Concentration 1 μM”, the inhibition at 1 µM fell in the range of 80 to 100%.
Still for that read-out and setting: for `Cc1ccc(-n2nc(C(C)(C)C)cc2NC(=O)Nc2ccc(OCCN3CCn4c(nnc4-c4ccc(O)cc4O)C3)c3c2CCC3)cc1` [Compound 37, 1-[3-tert-butyl-1-(4-methylphenyl)-1H-pyrazol-5-yl]-3-(7-{2-[3-(2,4-dihydroxyphenyl)-5,6-dihydro[1,2,4]triazolo[4,3-a]pyrazin-7(8H)-yl]ethoxy}-2,3-dihydro-1H-inden-4-yl)urea] the value was 80 to 100%; for `Cc1ccc(-n2nc(C(C)(C)C)cc2NC(=O)Nc2ccc(OCCN3CCn4c(nnc4-c4cc(Cl)ccc4O)C3)c3c2CCC3)cc1` [Compound 38], 80 to 100%; for `COc1c(NC(=O)Nc2ccc(OCCN3CCN(CC4CC4)C(=O)C3)c3c2CCC3)cc(C(C)(C)C)cc1NS(C)(=O)=O` [Compound 39, N-(5-tert-butyl-3-{[(7-{2-[4-(cyclopropylmethyl)-3-oxopiperazin-1-yl]ethoxy}-2,3-dihydro-1H-inden-4-yl)carbamoyl]amino}-2-methoxyphenyl)methanesulfonamide], 80 to 100%.
For the compound `COc1c(NC(=O)Nc2ccc(OCCN3CCn4c(nnc4-c4ccccc4O)C3)c3c2CCC3)cc(C(C)(C)C)cc1NS(C)(=O)=O` [Compound 40, N-(5-tert-butyl-3-{[(7-{2-[3-(2-hydroxyphenyl)-5,6-dihydro[1,2,4]triazolo[4,3-a]pyrazin-7(8H)-yl]ethoxy}-2,3-dihydro-1H-inden-4-yl)carbamoyl]amino}-2-methoxyphenyl)methanesulfonamide], the inhibition at 1 µM (Concentration 1 μM) lay within 80 to 100%.
In the case of `COc1c(NC(=O)Nc2ccc(OCCCN3CCN(CC4CC4)C(=O)C3)c3c2CCC3)cc(C(C)(C)C)cc1NS(C)(=O)=O` [Compound 41, N-(5-tert-butyl-3-{[(7-{3-[4-(cyclopropylmethyl)-3-oxopiperazin-1-yl]propoxy}-2,3-dihydro-1H-inden-4-yl)carbamoyl]amino}-2-methoxyphenyl) methanesulfonamide], the inhibition at 1 µM (Concentration 1 μM) was in the range of 60 to 80%.
Regarding `CCCSc1ccccc1-c1nnc2n1CCN(CCOc1ccc(NC(=O)Nc3cc(C(C)(C)C)cc(NS(C)(=O)=O)c3OC)c3c1CCC3)C2` [Compound 42, N-[5-tert-butyl-2-methoxy-3-({[7-(2-{3-[2-(propylsulfanyl)phenyl]-5,6-dihydro[1,2,4]triazolo[4,3-a]pyrazin-7(8H)-yl}ethoxy)-2,3-dihydro-1H-inden-4-yl]carbamoyl}amino)phenyl]methanesulfonamide], the inhibition at 1 µM (Concentration 1 μM) was 80 to 100%.
Still for that read-out and setting: for `CCCCN1CCN(CCOc2ccc(NC(=O)Nc3cc(C(C)(C)C)cc(NS(C)(=O)=O)c3OC)c3c2CCC3)CC1=O` [Compound 44, N-{5-tert-butyl-3-[({7-[2-(4-butyl-3-oxopiperazin-1-yl)ethoxy]-2,3-dihydro-1H-inden-4-yl}carbamoyl)amino]-2-methoxyphenyl} methanesulfonamide] the value was 80 to 100%.
For the compound `CCS(=O)(=O)Nc1cc(C(C)(C)C)cc(NC(=O)Nc2ccc(OCCN3CCn4c(nnc4-c4ccccc4SC)C3)c3c2CCC3)c1OC` [Compound 45, N-[5-tert-butyl-2-methoxy-3-({[7-(2-{3-[2-(methylsulfanyl)phenyl]-5,6-dihydro[1,2,4]triazolo[4,3-a]pyrazin-7(8H)-yl}ethoxy)-2,3-dihydro-1H-inden-4-yl]carbamoyl}amino)phenyl]ethanesulfonamide], the inhibition at 0.1 µM fell in the range of 80 to 100%.
As to `COc1c(NC(=O)Nc2ccc(OCCN3CCn4c(nnc4-c4cccc(O)c4)C3)c3c2CCC3)cc(C(C)(C)C)cc1NS(C)(=O)=O` [Compound 46, N-(5-tert-butyl-3-{[(7-{2-[3-(3-hydroxyphenyl)-5,6-dihydro[1,2,4]triazolo[4,3-a]pyrazin-7(8H)-yl]ethoxy}-2,3-dihydro-1H-inden-4-yl)carbamoyl]amino}-2-methoxyphenyl)methanesulfonamide], the inhibition at 0.1 µM fell in the range of 60 to 80%.
On the same count and under the same terms, for `COc1c(NC(=O)Nc2ccc(OCCN3CCn4c(nnc4-c4ccc(SCCO)cc4)C3)c3c2CCC3)cc(C(C)(C)C)cc1NS(C)(=O)=O` [Compound 47, N-(5-tert-butyl-3-{[(7-{2-[3-{4-[(2-hydroxyethyl)sulfanyl]phenyl}-5,6-dihydro[1,2,4]triazolo[4,3-a]pyrazin-7(8H)-yl]ethoxy}-2,3-dihydro-1H-inden-4-yl)carbamoyl]amino}-2-methoxyphenyl)methanesulfonamide] the value was 60 to 80%.
In the case of `COc1c(NC(=O)Nc2ccc(OCCN3CCn4c(nnc4-c4cc(Cl)ccc4O)C3)c3c2CCC3)cc(C(C)(C)C)cc1NS(C)(=O)=O` [Compound 48, N-(5-tert-butyl-3-{[(7-{2-[3-(5-chloro-2-hydroxyphenyl)-5,6-dihydro[1,2,4]triazolo[4,3-a]pyrazin-7(8H)-yl]ethoxy}-2,3-dihydro-1H-inden-4-yl)carbamoyl]amino}-2-methoxyphenyl)methanesulfonamide], the inhibition at 1 µM (Concentration 1 μM) fell in the range of 80 to 100%.
On the same count and under the same terms, with `CCS(=O)(=O)Nc1cc(C(C)(C)C)cc(NC(=O)Nc2ccc(OCCN3CCn4c(nnc4-c4ccc(O)cc4O)C3)c3c2CCC3)c1OC` [Compound 49, N-(5-tert-butyl-3-{[(7-{2-[3-(2,4-dihydroxyphenyl)-5,6-dihydro[1,2,4]triazolo[4,3-a]pyrazin-7(8H)-yl]ethoxy}-2,3-dihydro-1H-inden-4-yl)carbamoyl]amino}-2-methoxyphenyl)ethanesulfonamide] the figure was 80 to 100%.
On to `CCCSc1ccccc1-c1nnc2n1CCN(CCOc1ccc(NC(=O)Nc3cc(C(C)(C)C)cc(NS(=O)(=O)CC)c3OC)c3c1CCC3)C2` [Compound 50, N-[5-tert-butyl-2-methoxy-3-({[7-(2-{3-[2-(propylsulfanyl)phenyl]-5,6-dihydro[1,2,4]triazolo[4,3-a]pyrazin-7(8H)-yl}ethoxy)-2,3-dihydro-lH-inden-4-yl]carbamoyl}amino)phenyl] ethanesulfonamide], for which the “P38α Inhibition” value (Concentration 1 μM) is on record as “+++++ (+++++ = Inhibition ≥80% ≥ 100%)”.
`CCS(=O)(=O)Nc1cc(C(C)(C)C)cc(NC(=O)Nc2ccc(OCCN3CCn4c(nnc4-c4cc(Cl)ccc4O)C3)c3c2CCC3)c1OC` [Compound 51, N-(5-tert-butyl-3-{[(7-{2-[3-(5-chloro-2-hydroxyphenyl)-5,6-dihydro[1,2,4]triazolo[4,3-a]pyrazin-7(8H)-yl]ethoxy}-2,3-dihydro-1H-inden-4-yl)carbamoyl]amino}-2-methoxyphenyl)ethanesulfonamide]: the inhibition at 1 µM (Concentration 1 μM) is 80 to 100%.
The same measure, in the same setting: for `CC(=O)Nc1cc2c(s1)CCN(C(=O)COc1ccc(NC(=O)Nc3cc(C(C)(C)C)nn3-c3ccc(C)cc3)c3c1CCC3)C2` [Compound 52, N-[5-({[7-({[3-tert-butyl-1-(4-methylphenyl)-1H-pyrazol-5-yl]carbamoyl}amino)-2,3-dihydro-1H-inden-4-yl]oxy}acetyl)-4,5,6,7-tetrahydrothieno[3,2-c]pyridin-2-yl] acetamide] the value was 60 to 80%; for `COc1ccc(-n2nc(C(C)(C)C)cc2NC(=O)Nc2ccc(OCC(=O)N3CCn4c(nnc4C(F)(F)F)C3)c3c2CCC3)cc1Cl` [Compound 53, 1-[3-tert-butyl-1-(3-chloro-4-methoxyphenyl)-1H-pyrazol-5-yl]-3-(7-{2-oxo-2-[3-(trifluoromethyl)-5,6-dihydro[1,2,4]triazolo[4,3-a]pyrazin-7(8H)-yl]ethoxy}-2,3-dihydro-1H-inden-4-yl)urea], 40 to 60%.

The values above are taken from patent US9963463B2, “Urea-substituted indanes as P38 map kinase inhibitors” (TORRENT PHARMACEUTICALS LIMITED, priority 2014, dated 2018).
